Reference: US10624877B2, “Composition and method for treatment of symptoms associated with various skin conditions” (priority 2011, dated 2020)

Assays:
skin [1] = settings: cited from earlier work
[2] = laboratory study; cited from earlier work
[3] = concentrations higher than in products; attributed to formaldehyde release; cited from earlier work
skin [4] = settings: clinical studies; could be related to formaldehyde release; cited from earlier work
[5] = Examination of 1.0% THI cream on a mixing plate; type: physicochemical; settings: 100 mg THI in 10 g base cream (1.0%)
Method: A topical formulation containing 100 mg of THI in 10 g of base cream was prepared as follows. […] A smooth cream was obtained by levigation in a marble mortar and pestle. A dime-sized portion of the […] material was then incorporate geometrically with similar-sized portions of base and mixed thoroughly. […] Application of the finished cream to the skin left no residue.

S1P lyase = biological target: T1, S1P lyase (Mus musculus, UniProt Q8R0X7); settings: when administered to mice; cited from earlier work
T1 sequence (Q8R0X7 1-568): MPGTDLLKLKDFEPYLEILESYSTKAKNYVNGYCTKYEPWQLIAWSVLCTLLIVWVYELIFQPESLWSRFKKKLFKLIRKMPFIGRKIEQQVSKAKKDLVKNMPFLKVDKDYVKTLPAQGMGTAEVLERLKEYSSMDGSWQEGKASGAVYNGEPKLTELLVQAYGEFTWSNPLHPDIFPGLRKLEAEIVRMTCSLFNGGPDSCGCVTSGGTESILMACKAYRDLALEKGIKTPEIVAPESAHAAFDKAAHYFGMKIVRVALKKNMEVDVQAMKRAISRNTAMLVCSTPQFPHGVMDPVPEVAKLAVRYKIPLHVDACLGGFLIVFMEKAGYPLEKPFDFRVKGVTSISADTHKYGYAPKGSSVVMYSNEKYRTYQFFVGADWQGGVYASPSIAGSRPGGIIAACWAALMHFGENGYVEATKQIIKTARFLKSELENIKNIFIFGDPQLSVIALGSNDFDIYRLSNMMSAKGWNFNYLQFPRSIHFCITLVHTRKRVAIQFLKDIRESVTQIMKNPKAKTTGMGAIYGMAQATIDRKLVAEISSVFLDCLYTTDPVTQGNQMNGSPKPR

rats = settings: administration to rats; cited from earlier work
mice = settings: administration to mice; cited from earlier work
humans = settings: studies in humans; cited from earlier work
[6] = chronic studies; cited from earlier work
skin [7] = settings: human exposure studies and clinical experience; cited from earlier work
[8] = subchronic oral, high doses; cited from earlier work
[9] = dermal laboratory studies; cited from earlier work
skin [10] = settings: clinical studies; cited from earlier work
[11] = in vivo; cited from earlier work
eye = settings: in vivo; cited from earlier work
[12] = in vivo; cited from earlier work; remark: listed apart in the source

Compound: CC1(C)C(=O)N(CO)C(=O)N1CO [DMDM hydantoin, 1,3-Bis(hydroxymethyl)-5,5-dimethylimidazolidine-2,4-dione]
- absorption from the skin (skin [1]): poorly absorbed from the skin
- adverse effects of oral exposure [2]: did not result in any adverse effects
- in vitro mutagenicity [3]: positive results in some in vitro mutagenicity studies
- skin irritation (skin [4]): some observations of skin irritation

Compound: CC(=O)c1nc(C(O)C(O)C(O)CO)c[nH]1 (stereo not shown) [THI, 2-acetyl-4-tetrahydroxybutylimidazole]
- dissolution of THI in the cream base [5]: at least partially dissolving in the cream base
- S1P lyase activity (S1P lyase): inhibits S1P lyase activity
- accumulation of mature T cells in the thymus (rats): causes the accumulation of mature T cells in the thymus
- lymphopenia (rats): induces lymphopenia
- accumulation of mature T cells in the thymus (mice): causes the accumulation of mature T cells in the thymus
- lymphopenia (mice): induces lymphopenia
- immunological effects in humans (humans): no immunological effects

Compound: CCCCCCCCCCCCCCCCCC(=O)OCC(O)CO (stereo not shown) [glyceryl stearate, Glyceryl stearate]
- carcinogenic effects [6]: no carcinogenic effects
- effects on reproduction [6]: no adverse effects on reproduction
- sensitization, phototoxicity, photosensitization (skin [7]): non-sensitizing, non-phototoxic and non-photosensitizing

Compound: OCCOc1ccccc1 [phenoxyethanol, 2-Phenoxyethanol]
- organ weights [8]: increased weights of some organs
- birth defects [9]: did not cause any birth defects
- delayed hypersensitivity (skin [10]): did not cause delayed hypersensitivity
- phototoxicity (skin [10]): nonphototoxic
- primary and cumulative irritation (skin [10]): neither a primary nor a cumulative irritant
- toxicity via oral and dermal administration [11]: practically nontoxic

Compound: Carbomer
- eye irritation (eye): no to moderate eye irritation

Compound: PEG-100 stearate
- changes in growth, histopathologic observations or hematologic values [12]: no significant changes
